PMC8593400, “Effective Search of Triterpenes with Anti-HSV-1 Activity Using a Classification Model by Logistic Regression” (Frontiers in Chemistry, 2021)
Entries after “also recorded” stand apart in the source; their conditions may differ. Like-named read-outs stand apart in the source and are kept apart here.

What was measured:
[1] = cytotoxicity, CellTiter-Glo 3D cell viability assay; type: cell-based; settings: African green monkey
Experimental: (§1) All test compounds were evaluated their cytotoxicity by using CellTiter-Glo 3D® cell viability assay ([Matsumoto et al., 2020]). Briefly, Vero cells (3.0 × 10^3 cells/ well) were seeded in 96-well plates (96F Nunclon TM Delta Microwell SI; Thermo Fisher Scientific), and precultured for 24 h. The cells were treated with test compounds (10 μL/well). After 48 h, CellTiter-Glo® 3D Reagent (Promega, Madison, WI, United States) was added at 100 μL per well, mixed by shaking for 5 min at RT, and incubated for 25 min at 37°C. The cell-containing media were transferred to a 96-well white plate (96F Nunclon TM Delta White Microwell SI; Thermo Fisher Scientific). Luminescence was measured with a luminometer (FLUOstar OPTIMA®; BMG Labtech, Ortenberg, Germany).

[2] = test system: HSV-1; settings: cited from earlier work; for anti-HSV-1 activity previously reported: ref Rattanathongkom et al., 2009
[3] = test system: HSV-1 (HF strain: acyclovir-sensitive); test: plaque reduction assay on Vero cells (anti-HSV-1 activity); type: cell-based, herpes simplex virus type 1; settings: for IC50: 50% inhibitory concentration, plaque reduction
Experimental: Antiviral effects against HSV-1 (HF strain: acyclovir-sensitive) were evaluated using a plaque reduction assay with some modifications as previously reported ([Ogawa et al., 2018]). The activity of all test compounds was measured at 25 μM, corresponding to the threshold of the prediction model. […] The protocol was performed follows.
Vero cells were maintained in Dulbecco’s Modified Eagle Medium (DMEM) supplemented with 10% fetal calf serum (FBS). Vero cells (1.7–2.8 × 10^5 cells/well) were seeded onto a 12-well tissue culture plate and precultured for 1–2 days. The cells were inoculated with 100 plaque-forming units (PFU) of HSV-1 in 0.1 ml of FBS-free DMEM. After 30 min, the inoculum was removed. HSV-infected cells were maintained in DMEM containing 10% FBS, methylcellulose, and serially diluted test compounds. After 48 h of incubation at 37°C, the medium was removed. The cell sheets were stained with 1% crystal violet dissolved in 50% methanol, and the number of plaques larger than 0.4 mm was counted. HSV-1 replication causes cytopathic effects, resulting in plaque formation. The number and size of plaques reflected virus yields. To examine the effect of virus yield reduction, the total plaque number in cells untreated with the compound was defined as 100% and set as the control group. The significant difference of test compounds at 25 μM from the control group was calculated using the Student’s t-test. The significant difference of each concentration of 10–13 and 16 from the control group was calculated by Dunnett’s test. Probability (p) values less than 0.05 were considered to be significant (^* p < 0.05, ^** p < 0.01).

[4] = parameters: method as in Rattanathongkom et al., 2009; settings: ref Rattanathongkom et al., 2009; cited from earlier work
[5] = test system: Vero cells; test: cytotoxicity, CellTiter-Glo 3D cell viability assay; type: cell-based
Experimental: as §1

[6] = Human alphaherpesvirus 1, Vero, 48 h, read-out: Inhibitory rate (%) 25 μM, 25 μM, plaque number vs untreated control, Vero cells, 48 h
[7] = Human alphaherpesvirus 1, Vero, Vero cells, read-out: IC50
[8] = Human alphaherpesvirus 1, Vero, 48 h, 5 μM, plaque number vs untreated control, Vero cells, 48 h, read-out: Inhibitory rate (%) 5 μM
[9] = Human alphaherpesvirus 1, Vero, 48 h, 10 μM, plaque number vs untreated control, Vero cells, 48 h, read-out: Inhibitory rate (%) 10 μM
[10] = Human alphaherpesvirus 1, Vero, 48 h, 25 μM, plaque number vs untreated control, Vero cells, 48 h, read-out: Inhibitory rate (%) 25 μM

CC1(C)CC[C@]2(C(=O)O[C@@H]3O[C@H](CO)[C@@H](O)[C@H](O)[C@H]3O)CC[C@]3(C)C(=CC[C@@H]4[C@@]5(C)CC[C@H](O[C@@H]6O[C@H](C(=O)O)[C@@H](O)[C@H](O)[C@H]6O)C(C)(C)[C@@H]5CC[C@]43C)[C@@H]2C1 [Compound 11, chikusetsusaponin IVa]
viability at 48 h, 25 µM ([1]; Cell viability (%)): 112 ± 4.45%
viability at 48 h, 50 µM ([1]; Cell viability (%)): 113 ± 6.08%
anti-HSV-1 activity previously reported [2]: exhibit anti-HSV-1 activity
anti-HSV-1 activity in words (significance vs control) ([3]; 25 μM): significant activity
Inhibitory rate (%) 25 μM ([3]; 25 μM, plaque number vs untreated control, Vero cells, 48 h, 25 µM): 51.82 ± 9.61^** %
IC50 ([3]; Vero cells): 13.1 µM
IC50 ([3]; Human alphaherpesvirus 1, Vero, Vero cells): < 25 µM
inhibition at 5 µM ([3]; Human alphaherpesvirus 1, Vero, 48 h, read-out: Inhibitory rate (%) 5 μM, 5 μM, plaque number vs untreated control, Vero cells, 48 h): 14.6 ± 15%
inhibition at 10 µM ([3]; Human alphaherpesvirus 1, Vero, 48 h, read-out: Inhibitory rate (%) 10 μM, 10 μM, plaque number vs untreated control, Vero cells, 48 h): 36.8 ± 17.4%
inhibition at 25 µM [3, 6]: 51.8 ± 9.61%

CC(C)[C@@H](O)C[C@@H](O)[C@](C)(O)[C@H]1CC[C@@]2(O)C3=CC(=O)[C@@H]4C[C@@H](O)[C@@H](O)C[C@]4(C)[C@H]3CC[C@]12C [Compound 7, pterosterone]
viability at 48 h, 25 µM ([1]; Cell viability (%)): 115 ± 3.95%

C[C@]12C[C@H](O)[C@H](O)C[C@H]1C(=O)C=C1[C@@H]2CC[C@]2(C)[C@@H](O)CC[C@@]12O [Compound 9, 2β,3β,14α,17β-tetrahydroxy-5β-androst-7-en-6-one]
viability at 48 h, 25 µM ([1]; Cell viability (%)): 106 ± 3.86%

CC(C)(O)CCC(=O)[C@](C)(O)[C@H]1CC[C@@]2(O)C3=CC(=O)[C@@H]4C[C@@H](O)[C@@H](O)C[C@]4(C)C3CC[C@]12C (some centres unmarked) [Compound 15, 22-oxo-20-hydroxyecdysone]
viability at 48 h, 25 µM ([1]; Cell viability (%)): 115 ± 3.93%

CC1(C)CC[C@]2(C(=O)O)CC[C@]3(C)C(=CCC4[C@@]5(C)C[C@H](O)[C@H](O)[C@@](C)(CO)C5CC[C@]43C)[C@@H]2C1 (some centres unmarked) [Compound 2, bayogenin]
viability at 48 h, 25 µM ([1]; Cell viability (%)): 117 ± 6.99%

CC1(C)CCC2(C(=O)O)CCC3(C)C(=CCC4C5(C)CCC(OC6OC(C(=O)O)C(O)C(O)C6O)C(C)(C)C5CCC43C)C2C1 [Compound 10, oleanolic acid 3-O-β-D-glucuronopyranoside]
cytotoxicity previously reported [4]: cytotoxicity
cytotoxicity in words [5]: showed cytotoxicity
Cell viability (%) ([5]; African green monkey, 48 h, 10 µM): 104.0 ± 9.28%
viability at 48 h, 10 µM ([1]; Cell viability (%)): 104 ± 9.28%
viability at 48 h, 25 µM ([1]; Cell viability (%)): 14.6%
viability at 48 h, 50 µM ([1]; Cell viability (%)): 1.47 ± 0.54%
anti-HSV-1 activity previously reported [2]: did not show any anti-HSV-1 activity
anti-HSV-1 activity in words (significance vs control) ([3]; 25 μM): significant activity
IC50 ([3]; Vero cells, read-out: IC50): 14.1 µM
IC50 [3, 7]: < 25 µM
inhibition at 5 µM [3, 8]: 5.85 ± 8.4%
inhibition at 10 µM [3, 9]: 27.5 ± 8.92%
inhibition at 25 µM [3, 10]: 83.3 ± 41.1%

C=C1CC[C@]2(C(=O)O)[C@@H](O)C[C@]3(C)C(=CC[C@@H]4[C@@]5(C)CC[C@H](O)C(C)(C)[C@@H]5CC[C@]43C)[C@@H]2C1 [Compound 6, pfaffianol A]
viability at 48 h, 25 µM ([1]; Cell viability (%)): 122 ± 6.84%
inhibition at 25 µM [3, 10]: 12.4 ± 16.9%

C[C@@H](C1CC[C@@]2(C)C3=C(CC[C@]12C)[C@@]1(C)CC[C@H](O)C(C)(C)C1CC3)[C@H](O)/C=C/C(C)(C)OO (stereo partly drawn) [Compound 17, 3β,22R-Dihydroxylanosta-8,23E-diene-25-peroxide]
viability at 48 h, 25 µM ([1]; Cell viability (%)): 16.8%

cucurbitacin B [reference compound]
anti-HSV-1 activity ([2]; ref Hassan et al., 2017): strong anti-HSV-1 activity
selectivity index ([2]; ref Hassan et al., 2017): high

CC(C)C(C)CCC(C)C1CCC2C1(C)CCC1C23C=CC2(CC(O)CCC12C)OO3 (stereo not drawn) [Compound 16, 5α,8α-epidioxyergosta-3β-ol]
viability at 48 h, 25 µM ([1]; Cell viability (%)): 130 ± 6.83%
viability at 48 h, 50 µM ([1]; Cell viability (%)): 2.96 ± 1.77%
anti-HSV-1 activity in words (significance vs control) ([3]; 25 μM): significant activity
inhibition at 5 µM [3, 8]: -2.49 ± 8.74%
inhibition at 10 µM [3, 9]: 0%
inhibition at 25 µM [3, 10]: 27.2 ± 5.52%

C[C@H](C/C=C/C(C)(C)OO)C1CC[C@@]2(C)C3=C(CC[C@]12C)[C@@]1(C)CC[C@H](O)C(C)(C)C1CC3 (stereo partly drawn) [Compound 20, (3β,23E)-25-hydroperoxylanosta-8,23-dien-3-ol]
inhibition at 25 µM [3, 10]: 19 ± 9.25%

CC1(C)C(=O)CC[C@@]2(C)C1CC[C@]1(C)C2CC=C2[C@@H]3C[C@](C)(C(=O)O)CC[C@]3(C(=O)O)CC[C@]21C (stereo partly drawn) [Compound 5, (20α)-3-oxoolean-12-ene-28,29-dioic acid]
viability at 48 h, 25 µM ([1]; Cell viability (%)): 122 ± 5.6%

C=C1CCC2(C(=O)OC3OC(CO)C(O)C(O)C3O)CCC3(C)C(=CCC4C5(C)CCC(OC6OC(C(=O)O)C(O)C(O)C6O)C(C)(C)C5CCC43C)C2C1 (centres unmarked) [Compound 12, boussingoside A2]
cytotoxicity in words [5]: no cytotoxicity
viability at 48 h, 25 µM ([1]; Cell viability (%)): 112 ± 6.79%
viability at 48 h, 50 µM ([1]; Cell viability (%)): 111 ± 9.73%
anti-HSV-1 activity in words (significance vs control) ([3]; 25 μM): significant activity; also recorded: moderate anti-HSV-1 activity
inhibition at 5 µM [3, 8]: 4.42 ± 8.12%
inhibition at 10 µM [3, 9]: 2.77 ± 11.6%
inhibition at 25 µM [3, 10]: 24.7 ± 10.2%

C[C@@H]1CC[C@]2(C(=O)O)CC[C@]3(C)C(=CC[C@@H]4[C@@]5(C)C[C@@H](O)[C@@H](O)C(C)(C)[C@@H]5CC[C@]43C)[C@@H]2[C@]1(C)O [Compound 1, Euscaphic acid]
viability at 48 h, 25 µM ([1]; Cell viability (%)): 117 ± 5.2%
inhibition at 25 µM [3, 10]: 0%

Nc1nc2c(ncn2COCCO)c(=O)[nH]1 [acyclovir, reference compound]
viability at 48 h, 10 µM ([1]; Vero cells, 10 μM, Vero cells, 48 h, read-out: Cell viability (%)): 103 ± 13.8%
IC50 [3, 7]: 3.08 µM
inhibition at 2.5 µM ([3]; Human alphaherpesvirus 1, Vero, 48 h, 2.5 μM, plaque number vs untreated control, Vero cells, 48 h, read-out: Inhibitory rate (%) 2.5 μM): 57.5 ± 11.9%
inhibition at 10 µM [3, 9]: 96 ± 11.8%

CC(C)=CCC[C@@H](C)[C@H]1CC[C@@]2(C)C3=C(CC[C@]12C)[C@@]1(C)CC[C@H](O)C(C)(C)[C@@H]1CC3 [Compound 19, lanosterol]
viability at 48 h, 25 µM ([1]; Vero cells, 25 μM, Vero cells, 48 h, read-out: Cell viability (%)): 101 ± 4.72%
inhibition at 25 µM [3, 6]: 20.4 ± 8.49%

CC(C)=CCC[C@@H](C=O)[C@H]1CC[C@@]2(C)C3=C(CC[C@]12C)[C@@]1(C)CC[C@H](O)C(C)(C)[C@@H]1CC3 [Compound 18, 3β-hydroxylanosta-8,24-dien-21-al]
viability at 48 h, 25 µM ([1]; Cell viability (%)): 113 ± 4.93%
inhibition at 25 µM [3, 10]: 1.24 ± 3.8%

CC1(C)CC[C@]2(C(=O)O)CC[C@]3(C)C(=CC[C@@H]4[C@@]5(C)CC[C@H](O)C(C)(C)[C@@H]5CC[C@]43C)[C@@H]2C1 [oleanolic acid, reference compound]
inhibition at 5 µM [3, 8]: 9.02 ± 4.22%
inhibition at 25 µM [3, 10]: 21.4 ± 11.6%

CC(C)(O)CCC[C@](C)(O)[C@H]1CC[C@@]2(O)C3=CC(=O)[C@@H]4C[C@@H](O)[C@@H](O)C[C@]4(C)C3CC[C@]12C (some centres unmarked) [Compound 8, taxisterone]
viability at 48 h, 25 µM ([1]; Cell viability (%)): 122 ± 4.78%

C=C1CCC2(C(=O)O)C(O)CC3(C)C(=CCC4C5(C)CCC(OC6OC(C(=O)O)C(O)C(O)C6O)C(C)(C)C5CCC43C)C2C1 (centres unmarked) [Compound 4, Pfaffiaglycoside B]
viability at 48 h, 25 µM ([1]; Cell viability (%)): 108 ± 4.17%
inhibition at 25 µM [3, 10]: 7.64 ± 10.7%
